These results are taken from patent US6358713B1, “In vitro ribosome evolution” (Johns Hopkins University, priority 1999, dated 2002).

Experiment [1] concerns peptidyl transferase A site of the 50S subunit. Description: Kinetic characterization of A-site substrates in the peptidyl transferase fragment reaction. The experiment is classed as biochemical. As to conditions: fragment reaction conditions, P-site substrate N-Ac-Met-ACCACC. The protocol: Synthesis of 4-thio-dT-p-C-p-puromycin 5′-Dimethoxytrityl-Nα-trifluoroacetyl-puromycin was attached to alkylamine-derivatized controlled pore glass via a 2′-succinate linkage by standard methods. See, Atkinson and Smith, Solid Phase Synthesis of Oligodeoxyribonucleotides by the Phosphate-triester Method, in Oligonucleotide Synthesis: A Practical Approach, Oxford: IRL Press, pp. 35-81, 1985. 4-Thio-dT-p-C-p-Puromycin (s^4TCPm) was prepared by standard phosphoramidite chemistry using the solid-phase version of puromycin, and rC and 4-thio-dT phosphoramidites (Glen Research Corporation, Sterling, Va.). Deprotection was performed by treatment with 3:1 NH4OH:MeOH/50 mM NaSH overnight at 55° C. Subsequently, 40 equivalents of 1 M tetrabutylammonium fluoride (TBAF) in tetrahydrofuran (THF) were added to the dried product and incubated overnight at room temperature. Finally, 20 mM triethylamine-acetate (pH. 7.0) was added to the reaction mixture, loaded directly on a C18 HPLC column, and eluted with increasing concentrations of acetonitrile (CH3CN). Multiple peaks were collected and the purity of the products was analyzed on a 20% polyacrylamide/7M urea gel following 5′-[^32P]-end-labelling using polynucleotide kinase. Although two peaks appeared to be relatively pure by this analysis, only the slowest migrating peak on the HPLC had any crosslinking ability. Kinetic characterization of s^4TCPm was performed using the tRNA fragment N-Ac-Met-ACCACC, as a P-site substrate, using fragment reaction conditions, and paper electrophoresis analysis of the resulting product, s^4TCPm-N-Ac-Met, as described by Green and Noller, RNA, 1996, 2:1011-1021. This analysis was complicated by the apparent affinity of the compound for both the A and P sites at high concentrations. The P-site affinity may be attributable to wobble pairing between 4-thio-dT (which mimics C74 of tRNA) and G2252 of 23S rRNA. See, Samaha et al., Nature 1995, 377:309-314. […]

For a further experiment, the system named is 23S rRNA (2555 loop). Put plainly: Antibiotic inhibition of crosslinking by s^4TCPm to 23S rRNA. Type of experiment: binding, E. coli. As to conditions: antibiotics 0.1 mM (neomycin 0.01 mM, puromycin 1 mM); limiting [32P]-s^4TCPm. The procedure:
FIGS. 5A and 5B are graphs that indicate antibiotic inhibition of crosslinking by s^4TCPm to 23S rRNA (5A) and of peptidyl transferase activity of crosslinked complex (s^4TCPm-50S) (5B). Values were normalized to 1.0 for reactions where no antibiotics were included.
(§1) Kinetic analysis of crosslinked ribosomal complex: Crosslinked 50S subunits were separated from 30S subunits, gene 32 mRNA, and deacylated tRNA^Phe on 5%-20% sucrose gradients in 10 mM Tris-Cl, pH 7.5, 30 mM NH4Cl, and 1 mM MgCl2, and spun in an SW41 rotor at 19,000 rpm for 16 hours. Excess sucrose was removed and the buffer exchanged to 20 mM Tris, pH 7.5, 100 mM NH4Cl, and 5 mM MgCl2 using Centricon 100 tubes spun at 2600 rpm in an SS34 rotor. Peptidyl transferase assays were done as follows: crosslinked 50S subunit complexes (0.5 μM) were incubated in standard fragment reaction conditions (50 mM Tris, pH 8.3, 0.4 M potassium acetate (KOAc), 60 mM MgCl2, and 33% MeOH) with CACCA-(N-Ac-Phe) (2 μM). Aliquots were removed from the reaction at the indicated times, rRNAs phenol extracted, digested with RNase T1, and the fragments resolved on 24% polyacrylamide/6 M urea gels. […] When incubated with ribosomes at these concentrations, these antibiotics protect specific positions in 16S and 23S rRNA from chemical modification. Antibiotic inhibition of crosslinking was performed using limiting [^32P]-s^4TCPm and a single time point (2 minutes) of exposure to various lengths of time (0, 5, 10, 20, or 40 minutes) to long-wave length (366 nm) UV light (in the linear range of the reaction) under standard conditions. Ribosomal RNAs were phenol extracted and analyzed on a 3.8% polyacrylamide—7 M urea gel. Antibiotic inhibition of PT activity was performed with the fragment P-site substrate, CACCA-(N-Ac-Phe), supplied at a concentration of 0.3 μM; a single linear time point of 4 minutes was used for analysis.
While sparsomycin is known to stabilize P-site substrate binding, it also competes effectively for binding with puromycin in the A site. As sparsomycin is ineffective in the context of a covalently tethered puromycin substrate, but active in preventing the crosslinking of s^4TCPm, it seems likely that its mode of inhibition results primarily from its effect on A-site interactions. Puromycin had no effect on the peptidyl transferase activity of the crosslinked complex, consistent with the high effective concentration of the s^4TCPm substrate covalently bound in the A site. These effects of the various antibiotics on the activity of the 50S subunit-s^4TCPm complex provide further evidence that the synthetic substrate, s^4TCPm, is crosslinked to its physiologically correct binding site.

Experiment [2] concerns crosslinked 50S subunit-s^4TCPm complex. Description: Antibiotic inhibition of peptidyl transferase activity of the crosslinked complex (s^4TCPm-50S). Type of experiment: biochemical, E. coli. As to conditions: antibiotics 0.1 mM (neomycin 0.01 mM, puromycin 1 mM); CACCA-(N-Ac-Phe) 0.3 μM, 4 minutes.
Procedure: Kinetic analysis of crosslinked ribosomal complex: Crosslinked 50S subunits were separated from 30S subunits, gene 32 mRNA, and deacylated tRNA^Phe on 5%-20% sucrose gradients in 10 mM Tris-Cl, pH 7.5, 30 mM NH4Cl, and 1 mM MgCl2, and spun in an SW41 rotor at 19,000 rpm for 16 hours. Excess sucrose was removed and the buffer exchanged to 20 mM Tris, pH 7.5, 100 mM NH4Cl, and 5 mM MgCl2 using Centricon 100 tubes spun at 2600 rpm in an SS34 rotor. Peptidyl transferase assays were done as follows: crosslinked 50S subunit complexes (0.5 μM) were incubated in standard fragment reaction conditions (50 mM Tris, pH 8.3, 0.4 M potassium acetate (KOAc), 60 mM MgCl2, and 33% MeOH) with CACCA-(N-Ac-Phe) (2 μM). Aliquots were removed from the reaction at the indicated times, rRNAs phenol extracted, digested with RNase T1, and the fragments resolved on 24% polyacrylamide/6 M urea gels. […] Antibiotic inhibition of PT activity was performed with the fragment P-site substrate, CACCA-(N-Ac-Phe), supplied at a concentration of 0.3 μM; a single linear time point of 4 minutes was used for analysis.
Experiment [3] deals with 23S rRNA of E. coli tight-couple 70S ribosomes. Put plainly: UV crosslinking of s^4TCPm to ribosomes. Type of experiment: binding. The procedure:
(§2) Crosslinking of ribosomes by s^4TCPm: Tight-couple E. coli 70S ribosomes (2 μM) were incubated with 1.2 equivalents (2.4 μM) of gene 32 mRNA and of deacylated CF23 tRNA^Phe in 20 mM Tris, pH 7.5, 30 mM MgCl2, 50 mM NH4Cl, 6 mM 2-mercaptoethanol, and 10% MeOH. Saturating s^4TCPm (20 μM) (or [^32P]-s^4TCPm) was then added and the mixture was incubated at 37° C. for 10 minutes. Crosslinking of s^4TCPm to B. stearothermophilus 70S ribosomes was performed under similar conditions except with 30 mM Tris pH 7.5, 10 mM MgCl2, and 330 mM KCl. Complexes were exposed for varying lengths of time to a hand-held UV light source (UVL-56, Blak-Ray Lamp, UVP, Inc.—366 nm) at a distance of 3 cm. […] Analysis of the amount of substrate crosslinked to the r-proteins was determined as described by Breitmeyer and Noller, J. Mol. Biol., 1976, 101:297-306.
Crosslinking to the peptidyl transferase A site: To target binding of the crosslinking reagent specifically to the peptidyl transferase A site, the P site of E. coli tight-couple 70S ribosomes, programed with a shortened version of bacteriophage T4 gene 32 mRNA, was filled with deacylated tRNA^Phe, followed by binding of radioactively labeled [^32P]-s^4TCPm (FIG. 3B). […] Total RNA was prepared from the UV-irradiated ribosomal complexes by phenol extraction and analyzed on a 3.8% denaturing polyacrylamide gel. […]

The test system of experiment [4] is B. stearothermophilus 70S ribosomes 23S rRNA. Description: UV crosslinking of s^4TCPm to B. stearothermophilus ribosomes. The note with it: compared with E. coli ribosomes. The experiment is classed as binding. The protocol: as §2, with “cm. Intact rRNAs were phenol extracted, and resolved on 3.8% polyacrylamide/7 M urea gels.” for “cm.”
The position of the crosslinked A-site substrate was first localized with a series of RNase H digestions to the region between positions 2538 and 2593 of 23S rRNA. Assignment of the site of crosslinking to position G2553 was achieved using primer extension analysis. Because of the impaired ability of reverse transcriptase to read modified bases on the rRNA template, a major cDNA product was obtained terminating one nucleotide 3′ to the modified base. […]

The test system of the next experiment is E. coli 50S subunit. Put plainly: Peptidyl transferase reactivity of the crosslinked complex. As to conditions: CACCA-(N-Ac-Phe), fragment reaction conditions. The experiment is classed as biochemical. The procedure: as §1, with “Antibiotic inhibition of crosslinking was performed using limiting [^32P]-s^4TCPm and a single time point (2 minutes) of exposure to various lengths of time (0, 5, 10, 20, or 40 minutes) to long-wave length (366 nm) UV light (in the linear range of the reaction) under standard conditions.” left out, “Antibiotic inhibition of PT activity was performed with the fragment P-site substrate, CACCA-(N-Ac-Phe), supplied at a concentration of 0.3 μM; a single linear time point of 4 minutes was used for analysis.” left out

The test system of experiment [5] is B. stearothermophilus 50S. Description: Peptidyl transferase reactivity of the crosslinked B. stearothermophilus complex. As to conditions: minimal P-site substrates. Type of experiment: biochemical. The protocol: as §1, with “Antibiotic inhibition of crosslinking was performed using limiting [^32P]-s^4TCPm and a single time point (2 minutes) of exposure to various lengths of time (0, 5, 10, 20, or 40 minutes) to long-wave length (366 nm) UV light (in the linear range of the reaction) under standard conditions.” left out, “Antibiotic inhibition of PT activity was performed with the fragment P-site substrate, CACCA-(N-Ac-Phe), supplied at a concentration of 0.3 μM; a single linear time point of 4 minutes was used for analysis.” left out

Broadly, the Km is the substrate concentration at which the rate is half of its maximum. Turning to `COc1ccc(C[C@H](N)C(=O)N[C@H]2[C@@H](O)[C@H](n3cnc4c(N(C)C)ncnc43)O[C@@H]2CO)cc1` [puromycin], the Km in experiment [1] is approximately 400 µM. Also, the “inhibition of crosslinking of s^4TCPm to the 2555 loop of 23S rRNA” value (“inhibition of crosslinking of s^4TCPm” for short) in the experiment on 23S rRNA (2555 loop) is “specifically inhibited”. Further, the “inhibition of peptidyl transferase reactivity of the crosslinked complex” value (from here on “inhibition … of the crosslinked complex”) in experiment [2] is reported as “no effect”.

As to `COc1ccc(CC(N)C(=O)NC2C(COP(=O)(O)OC3C(CO)OC(n4ccc(N)nc4=O)C3O)OC(n3cnc4c(N(C)C)ncnc43)C2O)cc1` (stereo not shown) [CPm, C-p-Puromycin], the Km in experiment [1] is approximately 10 µM.

Consider `CSC[S@+]([O-])C[C@H](CO)NC(=O)/C=C/c1c(C)[nH]c(=O)[nH]c1=O` [sparsomycin], for which the “inhibition of crosslinking of s^4TCPm” value in the experiment on 23S rRNA (2555 loop) was “strongly inhibited”. Besides, the “inhibition … of the crosslinked complex” value in experiment [2] was “no inhibitory effect”.

As to 4-thio-dT-p-C-p-Puromycin [s^4TCPm], the Michaelis-Menten constant (Km) in experiment [1] was approximately 10 µM. Also, in experiment [3], the “crosslinking to ribosomal proteins” value is “absence of significant crosslinking”. The “UV irradiation time at which the crosslinking reaction was complete” value in experiment [3] (366 nm UV) came to 10 min. Moreover, the “crosslinking efficiency with B. stearothermophilus ribosomes” value in experiment [4] is “similarly efficient”. In addition, the “crosslinked population reacted with P-site substrate” value is given as “approximately 50%” in the experiment with E. coli 50S subunit (2 minutes) and 85% with E. coli 50S subunit (12 minutes). Also, the “peptidyl transferase kinetics slower than E. coli complex” value in experiment [5] is recorded as “ca. 10 fold”.

In the case of `O=C(N[C@H](CO)[C@H](O)c1ccc([N+](=O)[O-])cc1)C(Cl)Cl` [chloramphenicol], the “inhibition of crosslinking of s^4TCPm” value in the experiment with 23S rRNA (2555 loop) was “specifically inhibited”. Further, the “inhibition … of the crosslinked complex” value in experiment [2] is “effectively inhibited”.

In the case of `CC[C@H]1OC(=O)[C@H](C)[C@@H](O[C@H]2C[C@@](C)(OC)[C@@H](O)[C@H](C)O2)[C@H](C)[C@@H](O[C@@H]2O[C@H](C)C[C@H](N(C)C)[C@H]2O)[C@](C)(O)C[C@@H](C)C(=O)[C@H](C)[C@@H](O)[C@]1(C)O` [erythromycin], in the experiment with 23S rRNA (2555 loop), the “inhibition of crosslinking of s^4TCPm” value is “no effect”.

On to neomycin, for which the “inhibition of crosslinking of s^4TCPm” value in the experiment on 23S rRNA (2555 loop) was “no effect”.

With `CO[C@@H]1[C@@H](O[C@@H]2O[C@H](C)[C@@H](O[C@H]3C[C@@](C)(O)[C@@H](OC(=O)CC(C)C)[C@H](C)O3)[C@H](N(C)C)[C@H]2O)[C@@H](CC=O)C[C@@H](C)C(=O)/C=C/[C@@H]2O[C@@H]2C[C@@H](C)OC(=O)C[C@H]1OC(C)=O` [carbomycin], in the experiment on 23S rRNA (2555 loop), the “inhibition of crosslinking of s^4TCPm” value was “specifically inhibited”. Besides, the “inhibition … of the crosslinked complex” value in experiment [2] is given as “effectively inhibited”.
